Entries after “also recorded” stand apart in the source; their conditions may differ.

Experiment [1] has as its target T1, Aβ42-FAM bound to lipids containing 22:6 (Homo sapiens, UniProt P05067).
T1 construct: SensoLyte Fluorescent β-Amyloid1-42 Sampler Kit, Anaspec; purchased Anaspec SensoLyte Fluorescent β-Amyloid1-42 Sampler Kit (catalogue number not given)
In words: Competition of Aβ42-FAM binding to plate-bound 22:6 lipid. Conditions: competitor 5×, 1 μM. The source says:
(§1) Maleic Anhydride Activated plates (Pierce Amine-binding, 96-well plates, Thermo Scientific) were washed in wash buffer (PBS: Phosphate buffered saline, 0.15 M sodium chloride, pH 7.2 containing 0.05% Tween-20 Detergent, PBST, Thermo Scientific) 4 times to activate reactive maleic anhydride functional group. Amine containing lipids were PE containing docosahexaenoyl (22:6) and stearoyl (18:0) acyl chains (22:6/18:0 PE) or two stearoyl acyl chains (di18:0 PE) were from Avanti Polar Lipids. […] Plates were then washed 4 times in PBST and fluorescence was detected using Tecan Infinite 200 at wavelengths 494/521 (excitation, emission) using the Optimal Gain setting.
Scrambled Aβ or unlabeled Aβ42 peptides (Anaspec) were diluted to 100 μM as above and then diluted in SuperBlock Blocking buffer to 1 μM, incubated for 1 hour at room temperature. Plates were washed and FAM fluorescence was read as above.
(§2) Lipid containing long chain polyunsaturated fatty acid 22:6, docosahexaenoic acid (DHA) and an amine containing headgroup, phosphatidylethanoloamine (PE) was bound to maleic anhydride activated plates which bind to free primary amine functional groups at neutral and alkaline pH. […] Specific binding was calculated by subtracting background binding of di18:0 PE.

Experiment [2] addresses T2, Aβ42 peptide fluorescently tagged with FAM (Homo sapiens, UniProt P05067).
T2 construct: SensoLyte Fluorescent β-Amyloid1-42 Sampler Kit, Anaspec; purchased Anaspec SensoLyte Fluorescent β-Amyloid1-42 Sampler Kit (catalogue number not given)
In words: Lipid binding assay: Aβ42-FAM on lipid-coated maleic anhydride plates.
From the text: as §1, with “Lipids. 22:6/18:0 PE was obtained in chloroform, dried down and solubilized at 200 pmol/μL in 1% n-octylglucoside (NOG, Santa Cruz) in PBS and sonicated for 5 minutes. di18:0 PE was obtained as a powder, solubilized at 200 pmol/μl in 1% NOG and bath sonicated for 5 minutes.” for “Lipids.”, “setting. […]” for “setting.”
as §2

Experiment [3] has as its target Aβ:ApoE:lipid binding complex (Homo sapiens, UniProt P05067). Put plainly: ApoE binding assay: fluorescent Aβ42 on ApoE-coated plates in presence of lipid. The arrangement: SensoLyte Fluorescent β-Amyloid1-42 Sampler Kit, Anaspec; HiLyte Fluor (fluorescent label); purchased ApoE: rPeptide; labelled Aβ: Anaspec. Conditions: only at very high concentrations of Aβ. As for the experimental part: Plates were prepared as above and incubated with a constant amount of apolipoprotein E (ApoE, rPeptide) at 12.5 pmol/well FIG. 2A or 4 pmol/well FIG. 2B for 1 hour at room temperature with shaking. Plates were then blocked for 1 hour and washed with PB ST. Aβ labled with HiLyte (Anaspec) was prepared as above and mixed with increasing amount of lipid in constant concentration of NOG (0.0034%) in SuperBlock Blocking buffer and incubated overnight at 4° C. Binding was read as above at 503/528 excitation/emission).
Assays were done in triplicate wells and reported as mean+/−standard error. Binding kinetics and best fit curve fitting were accomplished using Prism Graphpad software.
Specific binding was determined by subtracting non-specific binding to the plate in absence of ApoE (no ApoE, 0).

Experiment [4] deals with APPsw+ mice. In words: Nesting behavior after intranasal SDPC. Format: in vivo, mouse. As to conditions: 10 days intranasal low dose 0.5 mg/kg every other day, vs saline treated APPsw+. As for the experimental part:
FIGS. 4A-4D. 10 days treatment with low dose SDPC. (A) After 10 days treatment (Tx) with low dose phosphatidylcholine (PC) containing docosahexaenoyl (22:6) and stearoyl (18:0) acyl chains, 18:0-22:6 PC; 1-stearoyl-2-docosahexaenoyl-sn-glycero-3-phosphocholine (CAS Number 59403-52-0; Synonyms: 1-octadecanoyl-2-(4Z,7Z,10Z,13Z,16Z,19Z-docosahexaenoyl)-sn-glycero-3-phosphocholine and PC(18:0/22:6(4Z,7Z,10Z,13Z,16Z,19Z))) (SDPC) intranasally, nesting score was assessed as described before (114). The number of nestlettes (from 3 initially placed in cage) was estimated and exact weight of remaining nestlettes was determined in grams (g) from initial 3 nestlettes (approximately 2 g). (B) Activity during novel object recognition (NOR) training was assessed after 10 days intranasal SDPC. […] (D) Activity during Open Field testing 24 hours after NOR training (note, no difference in novel object discrimination (NOD) index was found. Standard error is shown for means of Saline treated APPsw+(control) (n=4); SDPC treated APPsw+(n=5) and wild type receiving no treatment (n=4). Significance was determined for […] using Student's t-test.
FIGS. 5A-5B. […] (A) After 30 days treatment (Tx) with low dose SDPC intranasally, nesting score was assessed as described (114). […] (B) Activity during NOR training was assessed after 10 days intranasal SDPC. […] Significance was determined for […] using Student's t-test. […]

In experiment [5] the test system is APPsw+ mice. Put plainly: Novel object recognition (NOR) and activity during NOR training after intranasal SDPC. Format: in vivo, mouse. As to the method: (§3) FIGS. 4A-4D. 10 days treatment with low dose SDPC. (A) After 10 days treatment (Tx) with low dose phosphatidylcholine (PC) containing docosahexaenoyl (22:6) and stearoyl (18:0) acyl chains, 18:0-22:6 PC; 1-stearoyl-2-docosahexaenoyl-sn-glycero-3-phosphocholine (CAS Number 59403-52-0; Synonyms: 1-octadecanoyl-2-(4Z,7Z,10Z,13Z,16Z,19Z-docosahexaenoyl)-sn-glycero-3-phosphocholine and PC(18:0/22:6(4Z,7Z,10Z,13Z,16Z,19Z))) (SDPC) intranasally, nesting score was assessed as described before (114). The number of nestlettes (from 3 initially placed in cage) was estimated and exact weight of remaining nestlettes was determined in grams (g) from initial 3 nestlettes (approximately 2 g). (B) Activity during novel object recognition (NOR) training was assessed after 10 days intranasal SDPC. Grooming behavior, free rearing, wall rearing and center crossing events are shown and were summed in total events. (C) Time spent with each identical object during NOR training. (D) Activity during Open Field testing 24 hours after NOR training (note, no difference in novel object discrimination (NOD) index was found. Standard error is shown for means of Saline treated APPsw+(control) (n=4); SDPC treated APPsw+(n=5) and wild type receiving no treatment (n=4). Significance was determined for p>0.05 using Student's t-test.
FIGS. 5A-5B. Nesting and activity after 30 days treatment with escalating dose SDPC. (A) After 30 days treatment (Tx) with low dose SDPC intranasally, nesting score was assessed as described (114). The number of nestlettes remaining (from 3 initially placed in cage) was estimated and exact weight of remaining nestlettes was determined in grams (g remaining) from initial 3 nestlettes (approximately 2 g). (B) Activity during NOR training was assessed after 10 days intranasal SDPC. Grooming behavior, free rearing, wall rearing and center crossing events were summed in total events. Standard error is shown for means of Saline treated APPsw+(control) (n=4); SDPC treated APPsw+(n=5) and wild type receiving no treatment (n=4). Significance was determined for […] using Student's t-test.
FIGS. 6A-6B. 30 days treatment with escalating dose SDPC. (A) Mice were placed in a box with two identical objects for 10 minutes on the training day 1. […] One object was replaced with a novel object for testing (NOD index). The same data is shown to scale in FIG. 6B (Testing (immediate)). Twenty-four hours later (Testing (24 hours)), mice were placed in the same context with one of the original identical objects (Familiar) and a second novel object (Novel). The time spent with each object was recorded. (B) For testing, novel object discrimination (NOD index) is assessed using the equation [(time novel)/(time familiar+time novel)].
NOD index of 0.5 represents equal time with each object. NOD>0.5 represents more time spent with novel object. Standard error is shown for means of Saline treated APPsw+(control) (n=4); SDPC treated APPsw+(n=5) and wild type receiving no treatment (n=4). Significance was determined for p>0.05 using Student's t-test.
SDPC was obtained from Avanti Polar Lipids (850472C) in chloroform, dried under vacuum conditions and resuspended in 0.9% saline (0.9% sodium chloride injection, USP, NDC 0409-7983-61, Hospira) containing 0.2% (weight:volume) methyl cellulose (average Mn 40,000, viscosity: 400 cP, CAS 9004-67-5, Sigma-Aldrich 274429) to aid in solubilization. A control solution of 0.9% saline containing 0.2% methyl cellulose was prepared at the same time without SDPC. A concentration of 3 mg/ml was used for doses 1-15 and 12 mg/ml was used for doses 16-18 (FIG. 3). Brief (3-5 minutes) bath sonication was used to improve solubility of 12 mg/ml concentration.
Mice were treated for 10 days at a low dose of SDPC intranasally administered 2.5 uL each nostril (5 μL total dose) for 0.5 mg/kg every other day assuming average mouse weight of 30 g (0.03 kg) (FIG. 3). […]

Experiment [6] has as its system APPsw+ mice. Described as above. As to conditions: 30 days intranasal escalated dose (0.5 then 2 mg/kg), SDPC vs saline treated APPsw+. Format: in vivo, mouse.
Experiment [7] deals with APPsw+ mice. In words: Open Field testing after intranasal SDPC. Format: in vivo, mouse. As to conditions: 10 days intranasal low dose; does not reach significance. As to the method:
as §3, with “t-test. […]” for “t-test.”

The mark [8] stands for this setting: 30 days intranasal escalated dose.

As for “unlabeled Aβ42 peptide: unlabeled Aβ42 peptide (Anaspec) used as competitor”, the “disruption of Aβ42-FAM binding to 22:6 lipid by competitor peptide” value in experiment [1] was “competitively disrupted”.

As to `CCCCCCCCCCCCCCCCCC(=O)OC[C@H](COP(=O)(O)OCCN)OC(=O)CCCCCCCCCCCCCCCCC` [di18:0 PE], the “binding of Aβ42-FAM to plate-bound lipid” value in experiment [2] (for di18:0: concentrations 10,000 pmol/well and below) was “very low binding activity”. In addition, the “binding of Aβ42-FAM to plate-bound lipid at the highest concentrations” value in experiment [2] (highest lipid concentrations (above 10,000 pmol/well)) was “modest binding”. Further, the “Aβ42-FAM binding to apoE in presence of lipid” value in experiment [3] is on record as “only very minimally”.

Turning to `CC/C=C\C/C=C\C/C=C\C/C=C\C/C=C\C/C=C\CCC(=O)O[C@H](COC(=O)CCCCCCCCCCCCCCCCC)COP(=O)([O-])OCC[N+](C)(C)C` [SDPC, 1-stearoyl-2-docosahexaenoyl-sn-glycero-3-phosphocholine], the nesting behavior result in experiment [4] is listed as “trend toward improvement; also recorded: non-significant trend for improvement”. Also, the “NOR discrimination (NOD index), tested 24 hours after training” value in experiment [5] (10 days intranasal low dose) is reported as “no discrimination was found; also recorded: no difference”. Also, the “activity during NOR training (wall rearing, free rearing, total activity level)” value in experiment [5] (10 days intranasal low dose 0.5 mg/kg every other day, vs saline treated APPsw+, 0.5 mg/kg) is recorded as “trend toward improvement; also recorded: non-significant trend for improvement”. The “exploration: time spent with identical objects during NOR training” value in experiment [5] (10 days intranasal low dose 0.5 mg/kg every other day, 0.5 mg/kg) is listed as “trend toward improved exploratory behavior; also recorded: non-significant trend toward exploration activity”. Besides, in experiment [5] (setting [8]), the “NOR deficits: time spent with a novel object” value is given as “significant amelioration” and the “novel object discrimination index (NOD index)” value was “significant changes were not observed; also recorded: trend for amelioration”. Further, the “discrimination of one displaced identical object (hippocampal function), training day 2” value in experiment [5] (30 days intranasal escalating dose) is given as “no discrimination was determined”. The “number of wall rears and total activity events” value in experiment [6] is on record as “significant improvement”. Moreover, in experiment [7], the “activity in the open field test following NOR testing” value was “continued improvement of activity level; also recorded: restored to the level of wild type non-treated mice”.
